One assay deals with GA RS-specific T cells. Put plainly: In vitro potency test: IL-2 secretion by GA RS-specific LN cells, ELISA, % potency relative to GA RS. The class given is cell-based, female (SJLXBALB/C)F1 mice. The note with it: for Response of GA RS-specific T cells (IL-2 secretion), in words: primary culture of LN cells from mice immunized with 250 μg GA RS in CFA; for % Potency: specificity of GA RS-specific LN cells, antigens incubated overnight. The method, then:
Mice were immunized with 250 μg GA RS in CFA. GA RS was produced as described in U.S. Pat. No. 5,800,808 or PCT International Publication No. WO 00/05250. The GA RS was chosen based on the chemical and biological properties being in the midrange of Copaxone® as described above. After 9-11 days, a primary culture of LN cells was prepared, and the cells were incubated with various concentrations of GA RS and with test samples. Following 18-21 hours of incubation at 37° C. in a humidified CO2 incubator, the culture media were collected and the level of IL-2 was measured by ELISA. The T-cell response to each DS batch were tested at two concentrations (within the linear range), and the % potency of the DS batch was calculated relative to that of the GA RS batch.
The GA RS emulsion was transferred into an insulin syringe. Then, 100 μl of the emulsion (250 μg GA per mouse) were injected into four footpads of each naive mouse (about 25 μl into each footpad). The immunized mice were used for the in vitro test 9-11 days following immunization.
The UV lamp was turned on 20 minutes before commencing work in the laminar hood and turned off when work began. Prior to placing any reagents under the hood, the working surface was cleaned with a 70% ethanol solution. Enriched DCCM1 medium was prepared. The enriched DCCM1 and the RPMI medium were pre-warmed at 37° C. prior to use. The mice were sacrificed by cervical dislocation. Each mouse was placed on its back and fastened to a support platform. The abdomen was sprayed with 70% alcohol and a middle incision was made (a 2 cm-long incision was usually sufficient). The skin was intersected towards the hind legs and LN was located from the hind and forelegs. The LN was transferred into a sterile petri dish containing about 5 ml sterile RPMI medium and the LN cells were teased out by a sterile syringe plunger. The sterile syringe was used to collect the cells' suspension from the petri dish (the collection of tissue debris was avoided by using sterile needles). The cells' suspension were transferred into a 50 ml sterile tube.
The cells were centrifuged at 200×g for 10 minutes at room temperature. The cells were re-suspended to a density of 1×10^7 cells/ml with enriched DCCM1.
The in vitro bioassay was performed in a 24-well, flat-bottomed tissue culture test plate at a final volume of 1 ml.
About 10-20 mg of, GA DS from the batch to be tested was weighed accurately and dissolved with ddH2O to 1.2 mg/ml. The OD minus blank of the solution was measured at 275 nm. The OD of the sample was adjusted to approx. 1.03 with ddH2O to obtain a stock solution of 1 mg/ml of GA. The stock solution of 100 μg/ml was prepared with enriched DCCM1 and filtered through a 0.2μ cellulose acetate filter. The stock solution was diluted to 10 and 20 μg/ml as described in Table 2 for the RS batch.
0.5 ml of each GA RS dilution, thus the final concentrations of GA RS in the wells were 25, 15, 10, 5, 2.5 and 1 μg/ml.
0.5 ml of each sample dilution, thus the final concentrations of the test sample in the well were 5 and 10 μg/ml.
The density of the cells was changed depending upon their response to GA. The cultures were kept at 37° C. in a humidified 5% CO2 incubator for 18-21 hrs. The plate was centrifuged at 200×g for 10 minutes at room temperature. The supernatants were collected into cryotubes. The supernatants were divided into working aliquots to avoid repeated freezing/thawing of the samples. The supernatants were stored at −20° C. for up to one week. The hood was cleaned with 70% ethanol solution and dried with Kim wipes. The gloves were removed and the hands were immediately washed with disinfectant.
All samples were tested in triplicate. […]

Another assay has as its system EAE. The note with it: 250 μg/mouse of GA in CFA; this mouse strain. The method, then: The control group in this experiment was injected with CFA alone. Ten days following immunization, LN cells were removed from the both groups of mice.
Assay [1] concerns experimental autoimmune encephalomyelitis (EAE). The note with it: various animal species (Lando et al., 1979; Aharoni, 1993); cited from earlier work.
The test system of assay [2] is exacerbating-remitting multiple sclerosis. The settings on record: daily subcutaneous injections (Johnson, 1987); cited from earlier work.

For `OC[C@@H](O)[C@@H](O)[C@H](O)[C@H](O)CO` [mannitol], the “Response of GA RS-specific T cells (IL-2 secretion), in words” value (shortened to “Response of GA RS-specific T cells”) with GA RS-specific T cells is “did not affect or interfere”.
In the case of “L-glutamic acid polymer with L-alanine, L-lysine and L-tyrosine, acetate (salt) [GA]”, the “blocking of EAE” value with EAE is “at least 80%”. For the same molecule, the “suppression of EAE” value in assay [1] is given as “suppress”. In assay [2], the progression of disability result is “slow progression of disability” and the relapse rate entry was “reduce the relapse rate”.
Regarding Lysozyme: a non-relevant basic protein, in the assay on GA RS-specific T cells, the “Response of GA RS-specific T cells” value was “not recognized” and the “% Potency” value is 0%.
Take “MBP pp.87-99: the MBP immunodominant peptide pp. 87-99 (an encephalitogenic peptide) (SRPHLIRLFSRDA; UniProt P02686 87-99, looked up, fragment)”: in the assay with GA RS-specific T cells, the “Response of GA RS-specific T cells” value is “did not respond” and the “% Potency” value is 0%.

B1: Human MBP: human MBP (myelin basic protein) (protein, UniProt P02686 1-304, looked up)
Myelin basic protein: MGNHAGKRELNAEKASTNSETNRGESEKKRNLGELSRTTSEDNEVFGEADANQNNGTSSQDTAVTDSKRTADPKNAWQDAHPADPGSRPHLIRLFSRDAPGREDNTFKDRPSESDELQTIQEDSAATSESLDVMASQKRPSQRHGSKYLATASTMDHARHGFLPRHRDTGILDSIGRFFGGDRGAPKRGSGKDSHHPARTAHYGSLPQKSHGRTQDENPVVHFFKNIVTPRTPPPSQGKGRGLSLSRFSWGAEGQRPGFGYGGRASDYKSAHKGFKGVDAQGTLSKIFKLGGRDSRSGSPMARR
On to B1, for which, in the assay with GA RS-specific T cells, the “Response of GA RS-specific T cells” value is listed as “did not respond” and the “% Potency” value is listed as 0%.

These data come from patent US7429374B2, “Process for the measurement of the potency of glatiramer acetate” (Teva Pharmaceutical Industries, Ltd., priority 2001, dated 2008).
